# Experimental data as given in patent publication US20100130613A1, “ADMINISTRATION OF ADAPALENE FOR MODULATING THE EXPRESSION OF CD1d OR IL-10” (GALDERMA RESEARCH & DEVELOPMENT, priority 2007, published 2010).
# Legend:
# [1] = system: CD1d; assay: CD1d expression in healthy human skin explants, immunohistochemistry; type: cell-based; details: 24 hours, versus control medium
# Experimental: (§1) Healthy human skin: fragments of healthy skin originating from 8 healthy donors were obtained from a mammary plasty (plastic surgery) or a foreskin (infant surgery).
# (§2) Fragments (4 mm in diameter) originating from biopsies of inflammatory skin, considered to be an inflammatory model, and of healthy skin, were incubated at 37° C. in a humid atmosphere and in the presence of 5% CO2 for 24 hours in KGM culture medium without hydrocortisone (PromoCell GmbH, Heidelberg, Germany). The culture medium was supplemented with two different concentrations of adapalene (Galderma, Sophia Antipolis, France): 10^−7 M and 10^−6 M. The culture medium alone served as control medium.
# (§3) After incubation, the explants were removed from the culture medium and were then frozen in liquid nitrogen for the immunohistochemical study. The culture supernatants were stored at −80° C. for subsequent measurement of protein secretion, by an ELISA assay technique. […]
# (§4) The labeling intensity was quantified according to a semi-quantitative scale: none (0), weak (1), medium (2) and strong (3). For each slide, the labeling intensity was determined using a mean of three fields. […] The reading was performed by two independent investigators.
# (§5) All the results are expressed as mean +/−SEM. The statistical significance of differences from the values (by comparison to the control medium) was determined by means of the paired Wilcoxon test. […]
# [2] = system: CD1d; assay: CD1d expression in acneic skin explants, immunohistochemistry; type: cell-based, human; details: 24 hours, control medium 0.9 (+/−0.2), p=0.034
# From the text: (§6) Inflammatory lesions of acne: a skin biopsy (1×1.5 cm) was obtained under local anaesthesia from a superficial inflammatory lesion (papula) on the back in 8 patients suffering from moderate acne and undergoing no topical treatment (for the last two weeks) or general treatment (for the last month, or three months for isotretinoin). The fragments taken were immediately placed in culture.
# as §2, with “medium. […]” for “medium.”
# as §4, §5
# [3] = system: IL-10; assay: IL-10 expression in healthy human skin explants, immunohistochemistry; type: cell-based; details: 24 hours
# Experimental: as §1, §2, §3, §4, §5
# [4] = system: IL-10; assay: IL-10 expression in acneic skin explants, immunohistochemistry; type: cell-based, human; details: 24 hours, control medium 1.9 (+/−0.4)
# From the text: as §6
# as §2, with “medium. […]” for “medium.”
# as §4, §5
# [5] = system: IL-10; assay: IL-10 secretion in culture supernatants of healthy human skin explants, ELISA; type: cell-based; details: 24 hours, control medium 17.8 pg/ml
# Experimental: as §1, §2
# After incubation, the explants were removed from the culture medium and were then frozen in liquid nitrogen for the immunohistochemical study. […]
# (§7) The concentrations of IL-10 were measured in the culture supernatants using a solid-phase ELISA (Enzyme Linked ImmunoSorbent Assay) sandwich kit, obtained from BioSource (International Inc, Ca, USA).
# (§8) The slides were read at 450 nm using an Emax reader (Molecular Devices, CA, USA). […]
# as §5
# [6] = system: IL-10; assay: IL-10 secretion in culture supernatants of acneic skin explants, ELISA; type: cell-based, human; details: 24 hours, control medium 5.7 pg/ml (+/−7.1)
# From the text: as §6
# as §2, with “medium. […]” for “medium.”
# as §7, §8, §5
# [7] = target: T1, RARγ (Homo sapiens, UniProt P13631); details: background statement; cited from earlier work
# T1 sequence (P13631 1-454): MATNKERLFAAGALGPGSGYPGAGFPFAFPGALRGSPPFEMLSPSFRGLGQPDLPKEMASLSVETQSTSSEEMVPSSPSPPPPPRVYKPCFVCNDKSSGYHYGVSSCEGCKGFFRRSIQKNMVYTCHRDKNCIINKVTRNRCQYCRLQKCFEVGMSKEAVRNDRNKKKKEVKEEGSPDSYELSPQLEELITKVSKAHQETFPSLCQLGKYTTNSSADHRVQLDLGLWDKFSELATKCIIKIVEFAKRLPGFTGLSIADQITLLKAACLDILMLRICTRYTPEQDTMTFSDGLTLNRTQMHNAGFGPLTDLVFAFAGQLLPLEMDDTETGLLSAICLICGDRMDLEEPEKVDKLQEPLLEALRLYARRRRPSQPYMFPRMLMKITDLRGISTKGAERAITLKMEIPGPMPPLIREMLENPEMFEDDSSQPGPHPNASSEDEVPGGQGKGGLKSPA
# [8] = target: T2, RARβ (Homo sapiens, UniProt P10826); details: background statement; cited from earlier work
# T2 sequence (P10826 1-455): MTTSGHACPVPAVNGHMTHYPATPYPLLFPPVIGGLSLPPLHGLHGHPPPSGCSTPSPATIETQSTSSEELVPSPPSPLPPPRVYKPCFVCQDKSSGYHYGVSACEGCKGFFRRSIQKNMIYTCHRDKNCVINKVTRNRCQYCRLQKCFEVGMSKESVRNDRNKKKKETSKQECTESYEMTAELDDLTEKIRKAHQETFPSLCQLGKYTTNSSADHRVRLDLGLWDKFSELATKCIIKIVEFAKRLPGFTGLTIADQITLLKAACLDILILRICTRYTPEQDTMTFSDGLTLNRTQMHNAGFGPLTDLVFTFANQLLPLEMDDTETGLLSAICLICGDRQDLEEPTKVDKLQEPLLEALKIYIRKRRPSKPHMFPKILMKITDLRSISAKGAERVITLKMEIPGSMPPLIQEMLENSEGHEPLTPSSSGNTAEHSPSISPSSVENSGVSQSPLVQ
# [9] = system: cellular retinoic acid binding proteins; details: background statement; cited from earlier work
# [10] = system: lipoxygenase pathway; details: background statement; cited from earlier work
# [11] = system: polymorphonuclear neutrophils; details: background statement; cited from earlier work
# [12] = system: free radicals; details: background statement; cited from earlier work
# [13] = system: leukotrienes; details: background statement; cited from earlier work
# [14] = system: superficial inflammatory lesions; details: clinically; Millikan, Int. J. Dermatol. 2000; cited from earlier work
smiles,measurement,setting,value
"COc1ccc(-c2ccc3cc(C(=O)O)ccc3c2)cc1C12CC3CC(CC(C3)C1)C2 [adapalene, 6-[3-(1-adamantyl)-4-methoxyphenyl]-2-naphthoic acid]",expression of CD1d in the epidermis (labeling intensity),"[1]; 10^−6 M adapalene, p=0.035",significantly decreases
same,expression of CD1d in the epidermis (labeling intensity),"[1]; 10^−7 M adapalene, p=0.023",significantly decreases
same,"expression of CD1d (labeling intensity, scale 0-3, mean +/−SEM)",[2]; 10^−6 M adapalene,1.5 (+/−0.5)
same,"expression of CD1d (labeling intensity, scale 0-3, mean +/−SEM)",[2]; 10^−7 M adapalene,1.5 (+/−0.5)
same,inhibitory effect on the expression of IL-10,"[3]; 10^−6 M adapalene, versus control medium, p=0.016",significant
same,expression of IL-10 in the epidermis (labeling intensity),"[3]; 10^−7 M and 10^−6 M adapalene, dose-dependent",significantly decreases
same,"intensity of IL-10 expression (scale 0-3, mean +/−SEM)","[4]; 10^−6 M adapalene, p=0.0199",0.6 (+/−0.2)
same,"intensity of IL-10 expression (scale 0-3, mean +/−SEM)","[4]; 10^−7 M adapalene, p=0.024",0.9 (+/−0.2)
same,secretion of IL-10 in supernatants,[5]; 10^−6 M adapalene,No modulation
same,secretion of IL-10 in supernatants,[5]; 10^−7 M adapalene,increases the secretion of IL-10
same,IL-10 level in supernatants,[6]; 10^−6 M adapalene,4.0 pg/mL
same,IL-10 level in supernatants,[6]; 10^−7 M adapalene,6.1 pg/mL
same,binding to RARγ,[7],binds selectively
same,binding to RARβ,[8],binds selectively
same,binding to cellular retinoic acid binding proteins,[9],"does not, on the other hand, bind"
same,oxidative metabolism of arachidonic acid via the lipoxygenase pathway,[10],inhibits
same,chemotaxis of polymorphonuclear neutrophils,[11],inhibits
same,production of free radicals,[12],inhibits
same,production of leukotrienes via the lipoxygenase pathway,[13],inhibits
same,clinical activity on superficial inflammatory lesions,[14],exhibits an activity on superficial inflammatory lesions
